# Target: purified recombinant human GAC (GLS1) (Homo sapiens (Human), UniProt O94925)
# Assay: GLS1 Enzymatic Activity Assay (dual-coupled enzymatic assay, resorufin/Amplex UltraRed readout);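 also: glutamate from GAC coupled via glutamate oxidase and peroxidase to resorufin, read as fluorescence (ex 530, em 590 nm) kinetically or at 20 min, four-parameter logistic IC50 fit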
# Assay type: biochemical
# Details: not given
# purified recombinant human GAC (GLS1), sequence (O94925 other isoform, or with tags, fused parts or gaps): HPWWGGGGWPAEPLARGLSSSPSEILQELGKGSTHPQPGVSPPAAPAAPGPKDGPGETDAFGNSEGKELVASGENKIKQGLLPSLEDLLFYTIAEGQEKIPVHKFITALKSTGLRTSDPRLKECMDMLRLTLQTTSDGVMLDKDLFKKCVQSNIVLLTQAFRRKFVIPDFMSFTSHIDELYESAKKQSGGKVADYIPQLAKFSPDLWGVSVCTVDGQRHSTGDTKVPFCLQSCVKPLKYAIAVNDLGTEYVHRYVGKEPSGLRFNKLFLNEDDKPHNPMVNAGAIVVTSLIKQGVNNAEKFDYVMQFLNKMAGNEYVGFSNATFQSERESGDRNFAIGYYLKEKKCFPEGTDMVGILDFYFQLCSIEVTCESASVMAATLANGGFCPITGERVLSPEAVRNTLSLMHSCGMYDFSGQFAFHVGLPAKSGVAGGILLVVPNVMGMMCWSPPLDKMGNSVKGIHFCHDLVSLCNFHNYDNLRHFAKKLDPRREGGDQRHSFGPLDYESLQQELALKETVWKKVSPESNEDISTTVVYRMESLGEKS
row,IC50 [nM],Structure (SMILES)
1,500 to 5000,"O=C(CN1CCC(F)(F)CC1)Nc1cn(CCCCn2cc(C(=O)NCc3ccccn3)nn2)nn1 [Example 326, 1-(4-{4-[2-(4,4-difluoropiperidin-1-yl)acetamido]-1H-1,2,3-triazol-1-yl}butyl)-N-(pyridin-2-ylmethyl)-1H-1,2,3-triazole-4-carboxamide]"
2,500 to 5000,"O=C(Cc1cccc(OC(F)(F)F)c1)Nc1cn(CCCCn2cc(C(=O)NCc3cc(OC(F)(F)F)ccc3F)nn2)nn1 [Example 333, N-{[2-fluoro-5-(trifluoromethoxy)phenyl]methyl}-1-[4-(4-{2-[3-(trifluoromethoxy)phenyl]acetamido}-1H-1,2,3-triazol-1-yl)butyl]-1H-1,2,3-triazole-4-carboxamide]"
3,500 to 5000,"Cc1ccc(CNC(=O)c2cn(CCCCn3cc(NC(=O)CN4CC(F)C4)nn3)nn2)cn1 [Example 348, 1-(4-{4-[2-(3-fluoroazetidin-1-yl)acetamido]-1H-1,2,3-triazol-1-yl}butyl)-N-[(6-methylpyridin-3-yl)methyl]-1H-1,2,3-triazole-4-carboxamide]"
4,100 to 500,"O=C(CN1CC(F)C1)Nc1cn(CCCCn2cc(C(=O)NCc3cc(Cl)ccc3F)nn2)nn1 [Example 349, N-[(5-chloro-2-fluorophenyl)methyl]-1-(4-{4-[2-(3-fluoroazetidin-1-yl)acetamido]-1H-1,2,3-triazol-1-yl}butyl)-1H-1,2,3-triazole-4-carboxamide]"
5,500 to 5000,"Cc1ccc(CNC(=O)c2cn(CCCCn3cc(NC(=O)CN4CC(F)(F)C4)nn3)nn2)cn1 [Example 351, 1-(4-{4-[2-(3,3-difluoroazetidin-1-yl)acetamido]-1H-1,2,3-triazol-1-yl}butyl)-N-[(6-methylpyridin-3-yl)methyl]-1H-1,2,3-triazole-4-carboxamide]"
6,500 to 5000,"Cc1ccc(CNC(=O)c2cn(CCCCn3cc(NC(=O)CN4CCC(F)(F)C4)nn3)nn2)cn1 [Example 354, 1-(4-{4-[2-(3,3-difluoropyrrolidin-1-yl)acetamido]-1H-1,2,3-triazol-1-yl}butyl)-N-[(6-methylpyridin-3-yl)methyl]-1H-1,2,3-triazole-4-carboxamide]"
7,500 to 5000,"O=C(CN1CCC(F)(F)C1)Nc1cn(CCCCn2cc(C(=O)NCc3ncccc3F)nn2)nn1 [Example 357, 1-(4-{4-[2-(3,3-difluoropyrrolidin-1-yl)acetamido]-1H-1,2,3-triazol-1-yl}butyl)-N-[(3-fluoropyridin-2-yl)methyl]-1H-1,2,3-triazole-4-carboxamide]"
8,500 to 5000,"Cc1ccc(CNC(=O)c2cn(CCCCn3cc(NC(=O)CN4CCC(F)(F)CC4)nn3)nn2)cn1 [Example 358, 1-(4-{4-[2-(4,4-difluoropiperidin-1-yl)acetamido]-1H-1,2,3-triazol-1-yl}butyl)-N-[(6-methylpyridin-3-yl)methyl]-1H-1,2,3-triazole-4-carboxamide]"
9,500 to 5000,"O=C(CN1CCC(F)(F)CC1)Nc1cn(CCCCn2cc(C(=O)NCc3ncccc3F)nn2)nn1 [Example 361, 1-(4-{4-[2-(4,4-difluoropiperidin-1-yl)acetamido]-1H-1,2,3-triazol-1-yl}butyl)-N-[(3-fluoropyridin-2-yl)methyl]-1H-1,2,3-triazole-4-carboxamide]"
10,500 to 5000,"O=C(Cc1ccccn1)Nc1cn(CC(F)CCn2cc(C(=O)NCc3ccccn3)nn2)nn1 (stereo not shown) [Example 362, 1-(3-fluoro-4-{4-[2-(pyridin-2-yl)acetamido]-1H-1,2,3-triazol-1-yl}butyl)-N-(pyridin-2-ylmethyl)-1H-1,2,3-triazole-4-carboxamide]"
11,500 to 5000,"O=C(Cc1ccccn1)Nc1cn(CC(F)CCn2cc(C(=O)NCc3ncccc3F)nn2)nn1 (stereo not shown) [Example 365, 1-(3-fluoro-4-{4-[2-(pyridin-2-yl)acetamido]-1H-1,2,3-triazol-1-yl}butyl)-N-[(3-fluoropyridin-2-yl)methyl]-1H-1,2,3-triazole-4-carboxamide]"
12,100 to 500,"Cc1ccc(CNC(=O)c2cn(CCC(F)Cn3cc(NC(=O)CN4CC(F)C4)nn3)nn2)cn1 (stereo not shown) [Example 374, 1-(3-fluoro-4-{4-[2-(3-fluoroazetidin-1-yl)acetamido]-1H-1,2,3-triazol-1-yl}butyl)-N-[(6-methylpyridin-3-yl)methyl]-1H-1,2,3-triazole-4-carboxamide]"

# Test system: A549 cells
# Assay: Proliferation Assay (A549 viability, Cell Titer Fluor, 72 hours)
# Assay type: cell-based
# Details: Homo sapiens, A549, 72 h
# Experimental: A549 cells were routinely maintained in RPMI 1640 media (Gibco catalog number 11875-093) supplemented with 10% dialyzed fetal bovine serum using a humidified incubator (37° C., 5% CO2 and ambient O2). In preparation for the viability assay, cells were inoculated into 384-well black CulturPlates (Perkin Elmer) at a density of 1000 cells/well in a volume of 40 uL. Following a 24-hour incubation at 37° C., 5% CO2 and ambient O2, cells were treated with compound (10 uL) in a final DMSO concentration of 0.5% (v/v). The microplates were then incubated for 72 hours (37° C., 5% CO2 and ambient O2). Cell Titer Fluor (Promega) was subsequently added (10 uL of 6× reagent) and mixed for 15 minutes at room temperature. The plates were then incubated for 30 minutes (37° C., 5% CO2 and ambient O2) and fluorescence was subsequently read on the Perkin Elmer Envision plate reader. IC50 values were calculated using a four-parameter logistic curve fit.
# Non-limiting examples include the following compounds and pharmaceutically acceptable salts thereof. […] “ND” indicates no data.
row,Structure (SMILES),EC50 [nM]
1,"O=C(NCc1cc(C2CC2)ccn1)c1cn(CCC(F)Cn2cc(C(=O)NCc3cccc(C4CC4)c3)nn2)nn1 (stereo not shown) [Example 134, 1-[4-(4-{[(3-cyclopropylphenyl)methyl]carbamoyl}-1H-1,2,3-triazol-1-yl)-3-fluorobutyl]-N-[(4-cyclopropylpyridin-2-yl)methyl]-1H-1,2,3-triazole-4-carboxamide]",< 100
2,"CNC(=O)c1cn(CCCCc2ccc(NC(=O)Cc3cncc(OC4CC(F)(F)C4)c3)nn2)nn1 [Example 202, 1-(4-(6-(2-(5-(3,3-difluorocyclobutoxy)pyridin-3-yl)acetamido)pyridazin-3-yl)butyl)-N-methyl-1H-1,2,3-triazole-4-carboxamide]",100 to 500
3,"COc1cncc(CNC(=O)c2cn(CC(F)CCc3nnc(NC(=O)Cc4cccc(OC(F)(F)F)c4)s3)nn2)c1 (stereo not shown) [Example 222, 1-(2-fluoro-4-(5-(2-(3-(trifluoromethoxy)phenyl)acetamido)-1,3,4-thiadiazol-2-yl)butyl)-N-((5-methoxypyridin-3-yl)methyl)-1H-1,2,3-triazole-4-carboxamide]",< 100

# Other lines, results leading:
row,EC50 [nM],Structure (SMILES)
1,< 100,"O=C(Cc1ccccc1)Nc1ccc(CCCCn2cc(C(=O)NCc3ccccc3)nn2)nn1 [Example 5, N-Benzyl-1-(4-(6-(2-phenylacetamido)pyridazin-3-yl)butyl)-1H-1,2,3-triazole-4-carboxamide]"
2,100 to 500,"O=C(NCc1ccccc1)c1cn(CCCCc2nnc(C(=O)NCc3cccc(OC(F)(F)F)c3)s2)nn1 [Example 39, 5-{4-[4-(benzylcarbamoyl)-1H-1,2,3-triazol-1-yl]butyl}-N-{[3-(trifluoromethoxy)phenyl]methyl}-1,3,4-thiadiazole-2-carboxamide]"
3,100 to 500,"CC(C)NC(=O)c1nnc(CCCCn2cc(C(=O)NCc3cccc(OC(F)(F)F)c3)nn2)s1 [Example 43, N-(propan-2-yl)-5-{4-[4-({[3-(trifluoromethoxy)phenyl]methyl}carbamoyl)-1H-1,2,3-triazol-1-yl]butyl}-1,3,4-thiadiazole-2-carboxamide]"
4,100 to 500,"CC(C)CNC(=O)c1nnc(CCCCn2cc(C(=O)NCc3cccc(OC(F)(F)F)c3)nn2)s1 [Example 44, N-(2-methylpropyl)-5-{4-[4-({[3-(trifluoromethoxy)phenyl]methyl}carbamoyl)-1H-1,2,3-triazol-1-yl]butyl}-1,3,4-thiadiazole-2-carboxamide]"
5,100 to 500,"CNC(=O)c1cn(CCCCc2ccc(NC(=O)Cc3cccc(OC(F)(F)F)c3)nn2)nn1 [Example 157, N-methyl-1-(4-(6-(2-(3-(trifluoromethoxy)phenyl)acetamido)pyridazin-3-yl)butyl)-1H-1,2,3-triazole-4-carboxamide]"
6,100 to 500,"CNC(=O)c1cn(CCCCc2ccc(NC(=O)Cc3ccccn3)nn2)nn1 [Example 167, N-methyl-1-(4-{6-[2-(pyridin-2-yl)acetamido]pyridazin-3-yl}butyl)-1H-1,2,3-triazole-4-carboxamide]"
7,< 100,"O=C(Cc1ccccn1)Nc1ccc(CCCCn2cc(C(=O)NCc3cccc(OC(F)(F)F)c3)nn2)nn1 [Example 169, 1-(4-{6-[2-(pyridin-2-yl)acetamido]pyridazin-3-yl}butyl)-N-{[3-(trifluoromethoxy)phenyl]methyl}-1H-1,2,3-triazole-4-carboxamide]"
8,100 to 500,"CNC(=O)c1cn(CCCCc2ccc(NC(=O)Cc3cc(C4CC4)ccn3)nn2)nn1 [Example 190, 1-(4-{6-[2-(4-cyclopropylpyridin-2-yl)acetamido]pyridazin-3-yl}butyl)-N-methyl-1H-1,2,3-triazole-4-carboxamide]"
9,100 to 500,"CNC(=O)c1cn(CCCCc2ccc(NC(=O)Cc3cc(Cl)ccn3)nn2)nn1 [Example 191, 1-(4-{6-[2-(4-chloropyridin-2-yl)acetamido]pyridazin-3-yl}butyl)-N-methyl-1H-1,2,3-triazole-4-carboxamide]"
10,< 100,"CNC(=O)c1cn(CCCCc2ccc(NC(=O)Cc3cc(-c4cccc(OC(F)(F)F)c4)ccn3)nn2)nn1 [Example 192, N-methyl-1-(4-(6-(2-(4-(3-(trifluoromethoxy)phenyl)pyridin-2-yl)acetamido)pyridazin-3-yl)butyl)-1H-1,2,3-triazole-4-carboxamide]"
11,100 to 500,"CNC(=O)c1cn(CCCCc2ccc(NC(=O)Cc3cc(Br)ccn3)nn2)nn1 [Example 200, 1-(4-(6-(2-(4-bromopyridin-2-yl)acetamido)pyridazin-3-yl)butyl)-N-methyl-1H-1,2,3-triazole-4-carboxamide]"
12,< 100,"O=C(Cc1ccccn1)Nc1ccc(CCCCn2cc(C(=O)NCc3cc(C(F)(F)F)ccn3)nn2)nn1 [Example 203, 1-(4-(6-(2-(pyridin-2-yl)acetamido)pyridazin-3-yl)butyl)-N-((4-(trifluoromethyl)pyridin-2-yl)methyl)-1H-1,2,3-triazole-4-carboxamide]"
13,100 to 500,"CNC(=O)c1cn(CCCCc2ccc(NC(=O)Cc3cc(C(F)(F)F)ccn3)nn2)nn1 [Example 210, N-methyl-1-(4-(6-(2-(4-(trifluoromethyl)pyridin-2-yl)acetamido)pyridazin-3-yl)butyl)-1H-1,2,3-triazole-4-carboxamide]"
